The source of these data is PubChem BioAssay AID192 (DTP/NCI, 2004).

Values joined by “and” are separate entries in the source; they are usually repeats but may differ in a detail not shown here. Identical values can stand only once. Toxic doses and inconclusive results are not listed.

The subject of the test is BDF1 mice, B16 melanoma ip, median survival T/C. In words: NCI In Vivo Anticancer Drug Screen. Data for tumor model B16 Melanoma (intraperitoneal) in B6D2F1 (BDF1) mice. To be noted: endpoint: median survival time, higher = longer survival. An outline of the steps:
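Mice with transplantable tumors; drug vs vehicle groups; endpoint survival or tumor size; value = T/C.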

Setting [1] is: dose: 50.0 mg/kg/injection, schedule: Q01DX009 (ip), vehicle: saline with Tween-80.
The mark [2] stands for this setting: dose: 3.12 mg/kg/injection, schedule: Q01DX009 (ip), vehicle: Klucel (hydroxypropylcellulose) (HPC).
Where [3] appears, read: dose: 6.25 mg/kg/injection, schedule: Q01DX009 (ip), vehicle: Klucel (hydroxypropylcellulose) (HPC).
Where [4] appears, read: dose: 12.5 mg/kg/injection, schedule: Q01DX009 (ip), vehicle: Klucel (hydroxypropylcellulose) (HPC).
Where [5] appears, read: dose: 25.0 mg/kg/injection, schedule: Q01DX009 (ip), vehicle: Klucel (hydroxypropylcellulose) (HPC).
Where [6] appears, read: dose: 50.0 mg/kg/injection, schedule: Q01DX009 (ip), vehicle: Klucel (hydroxypropylcellulose) (HPC).
Setting [7] is: dose: 100.0 mg/kg/injection, schedule: Q01DX009 (ip), vehicle: Klucel (hydroxypropylcellulose) (HPC).
Where [8] appears, read: dose: 100.0 mg/kg/injection, schedule: Q01DX009 (ip), vehicle: saline with Tween-80.
Where [9] appears, read: dose: 200.0 mg/kg/injection, schedule: Q01DX009 (ip), vehicle: saline with Tween-80.
The mark [10] stands for this setting: dose: 25.0 mg/kg/injection, schedule: Q01DX009 (ip), vehicle: saline.
Setting [11] is: dose: 50.0 mg/kg/injection, schedule: Q01DX009 (ip), vehicle: saline.
The mark [12] stands for this setting: dose: 6.25 mg/kg/injection, schedule: Q01DX009 (ip), vehicle: saline with Tween-80.
Setting [13] is: dose: 12.5 mg/kg/injection, schedule: Q01DX009 (ip), vehicle: saline with Tween-80.
The mark [14] stands for this setting: dose: 25.0 mg/kg/injection, schedule: Q01DX009 (ip), vehicle: saline with Tween-80.
Setting [15] is: dose: 100.0 mg/kg/injection, schedule: Q01DX009 (ip), vehicle: saline.

For `NC(N)=Nc1ccc(C(=O)O)cc1`, the T/C runs as follows: (dose: 33.0 mg/kg/injection, schedule: Q01DX009 (ip), vehicle: saline with Tween-80) 100 % of control; under setting [1], 96 % of control; (dose: 75.0 mg/kg/injection, schedule: Q01DX009 (ip), vehicle: saline with Tween-80) 96 % of control.

In the case of `CS(=O)(=O)OCCN(CCOS(C)(=O)=O)c1ccc(N=O)cc1`, the T/C was 150 % of control (dose: 0.1 mg/kg/injection, schedule: Q01DX009 (ip), vehicle: saline); 184 % of control and 204 % of control (dose: 0.2 mg/kg/injection, schedule: Q01DX009 (ip), vehicle: saline); 175 % of control (dose: 0.3 mg/kg/injection, schedule: Q01DX009 (ip), vehicle: saline).

Regarding `O=C1N(Cl)C(=O)C(c2ccc(Cl)cc2)(c2ccc(Cl)cc2)N1Cl`, the T/C (dose: 1.56 mg/kg/injection, schedule: Q01DX009 (ip), vehicle: Klucel (hydroxypropylcellulose) (HPC)) was 104 % of control; the T/C under setting [2] was 96 % of control; the T/C under setting [3] is 104 % of control; the T/C under setting [4] is 104 % of control; the T/C under setting [5] is 114 % of control and 101 % of control; the T/C (dose: 25.0 mg/kg/injection, schedule: Q02DX009 (ip), vehicle: Klucel (hydroxypropylcellulose) (HPC)) was 103 % of control. In addition, the T/C is 112 % of control under setting [6]; 99 % of control (dose: 50.0 mg/kg/injection, schedule: Q02DX009 (ip), vehicle: Klucel (hydroxypropylcellulose) (HPC)); 118 % of control under setting [7]; 106 % of control (dose: 100.0 mg/kg/injection, schedule: Q02DX009 (ip), vehicle: Klucel (hydroxypropylcellulose) (HPC)); 117 % of control (dose: 200.0 mg/kg/injection, schedule: Q01DX009 (ip), vehicle: Klucel (hydroxypropylcellulose) (HPC)); 96 % of control (dose: 200.0 mg/kg/injection, schedule: Q02DX009 (ip), vehicle: Klucel (hydroxypropylcellulose) (HPC)). For the same compound, the T/C (dose: 400.0 mg/kg/injection, schedule: Q01DX009 (ip), vehicle: Klucel (hydroxypropylcellulose) (HPC)) is 118 % of control.

Regarding `CC(=O)OC1C(C)OC(OC(=O)C2CCC3C(C2)OC2(CC(OC(=O)/C=C/c4ccccc4)C(C)CO2)C32CO2)C(OC2OC(C)C(O)C(OC(C)=O)C2O)C1O` (stereo unspecified), the T/C runs as follows: (dose: 6.0 mg/kg/injection, schedule: Q01DX009 (ip), vehicle: saline + alcohol) 152 % of control; (dose: 12.0 mg/kg/injection, schedule: Q01DX009 (ip), vehicle: saline + alcohol) 186 % of control; (dose: 24.0 mg/kg/injection, schedule: Q01DX009 (ip), vehicle: saline + alcohol) 205 % of control; (dose: 48.0 mg/kg/injection, schedule: Q01DX009 (ip), vehicle: saline + alcohol) 193 % of control.

As to `COC1C(O)CC(OC2C(C)OC(Oc3cc(O)c4c(O)c5c(cc4c3)C[C@@H]([C@H](OC)C(=O)[C@@H](O)[C@@H](C)O)[C@H](OC3CC(OC4CC(OC6CC(C)(O)C(O)C(C)O6)C(O)C(C)O4)C(O)C(C)O3)C5=O)CC2OC(C)=O)OC1C` (stereo partly specified), the T/C by setting is: (dose: 37.5 mg/kg/injection, schedule: Q01DX009 (ip), vehicle: saline) 110 % of control; (dose: 75.0 mg/kg/injection, schedule: Q01DX009 (ip), vehicle: saline) 113 % of control; (dose: 150.0 mg/kg/injection, schedule: Q01DX009 (ip), vehicle: saline) 111 % of control.

For the compound `C1=CC2CC3(OCCO3)C2C1` (stereo unspecified), the T/C under setting [1] was 88 % of control, the T/C under setting [8] is 106 % of control and the T/C under setting [9] was 93 % of control.

`CCC(c1ccc(OC)cc1)C(CC)c1ccc(O)c(CN2CCN(C)CC2)c1` (stereo unspecified): the T/C under setting [10] was 93 % of control and the T/C under setting [11] is 97 % of control.

As for `CNC(=O)Nc1cccc(C(F)(F)F)c1`, the T/C is 99 % of control under setting [5]; 100 % of control under setting [6]; 90 % of control and 112 % of control under setting [7].

In the case of `N=C(N)SCCCCCCCCCCSC(=N)N`, the T/C is 95 % of control under setting [12]; 88 % of control under setting [13]; 86 % of control and 88 % of control under setting [14].

Take `CC(C)C1NC(=O)NC1=O` (stereo unspecified): the T/C is 100 % of control under setting [15]; 100 % of control (dose: 100.0 mg/kg/injection, schedule: Q04DX003 (ip), vehicle: saline); 95 % of control (dose: 200.0 mg/kg/injection, schedule: Q01DX009 (ip), vehicle: saline); 106 % of control (dose: 200.0 mg/kg/injection, schedule: Q04DX003 (ip), vehicle: saline); 100 % of control (dose: 400.0 mg/kg/injection, schedule: Q01DX009 (ip), vehicle: saline); 97 % of control (dose: 400.0 mg/kg/injection, schedule: Q04DX003 (ip), vehicle: saline).

For `Nc1nc([Se])c2ncn(C3CC(O)C(CO)O3)c2n1` (stereo unspecified), the T/C was 105 % of control under setting [3], 124 % of control under setting [4], 122 % of control under setting [5] and 111 % of control under setting [6].

Turning to `CC[CH2][Pb]([CH2]CC)([CH2]CC)[N]1C(=O)c2ccccc2C1=O`, the T/C reads like this: under setting [2], 109 % of control; under setting [3], 101 % of control.

Turning to `Oc1c(CNCCCN2CCCC2)cc(Cl)c2cccnc12`, the T/C (dose: 12.5 mg/kg/injection, schedule: Q01DX009 (ip), vehicle: saline) is 94 % of control and 95 % of control and 106 % of control; the T/C under setting [10] is 93 % of control and 98 % of control and 102 % of control; the T/C under setting [11] is 94 % of control and 97 % of control and 98 % of control; the T/C under setting [15] is 103 % of control and 108 % of control and 109 % of control.

As to `CSc1nc(N)nc2c1ncn2C1OC(CO)C(O)C1O` (stereo unspecified), the T/C (dose: 100.0 mg/kg/injection, schedule: Q01DX009 (ip), vehicle: suspension in saline) is 115 % of control and the T/C (dose: 200.0 mg/kg/injection, schedule: Q01DX009 (ip), vehicle: suspension in saline) is 110 % of control.

For the compound `O=C(O)CC(=O)O.[NH-]C1CCCCC1[NH-].[Pt+2]` (stereo unspecified), the T/C reads like this: (dose: 10.0 mg/kg/injection, schedule: Q01DX009 (ip), vehicle: dextrose) 150 % of control; (dose: 12.5 mg/kg/injection, schedule: Q01DX009 (ip), vehicle: dextrose) 196 % of control; (dose: 24.0 mg/kg/injection, schedule: Q01DX009 (ip), vehicle: other) 150 % of control; (dose: 25.0 mg/kg/injection, schedule: Q01DX009 (ip), vehicle: dextrose) 163 % of control.

For `c1ccc2c(c1)OCCOCCOc1ccccc1OCCOCCO2`, the T/C was 93 % of control (dose: 12.5 mg/kg/injection, schedule: Q04DX003 (ip), vehicle: Klucel (hydroxypropylcellulose) (HPC)); 88 % of control (dose: 25.0 mg/kg/injection, schedule: Q04DX003 (ip), vehicle: Klucel (hydroxypropylcellulose) (HPC)); 86 % of control (dose: 50.0 mg/kg/injection, schedule: Q04DX003 (ip), vehicle: Klucel (hydroxypropylcellulose) (HPC)).

As for `Cc1ccc(NC(=S)NC(Cc2ccccc2)c2ccccc2)c(C)c1` (stereo unspecified), the T/C was 111 % of control under setting [4]; 109 % of control under setting [5]; 102 % of control under setting [6]; 94 % of control (dose: 75.0 mg/kg/injection, schedule: Q04DX003 (ip), vehicle: Klucel (hydroxypropylcellulose) (HPC)); 88 % of control under setting [7]; 94 % of control (dose: 150.0 mg/kg/injection, schedule: Q04DX003 (ip), vehicle: Klucel (hydroxypropylcellulose) (HPC)). Further, under “dose: 300.0 mg/kg/injection, schedule: Q04DX003 (ip), vehicle: Klucel (hydroxypropylcellulose) (HPC)”, the T/C was 102 % of control.

On to `COC1=CC(=O)C(O)=C(CC2(C)C(C)CCC3(C)C2CCCC3(C)C)C1=O` (stereo unspecified), for which the T/C is 91 % of control under setting [2]; 96 % of control under setting [3]; 96 % of control under setting [4]; 104 % of control under setting [5]; 100 % of control under setting [6]; 100 % of control under setting [7].

As for `O=C(O)COc1ccc([N+](=O)[O-])cc1`, the T/C under setting [8] is 96 % of control and the T/C under setting [9] is 87 % of control.

Consider `CC(C)=CC1C(C(=O)OCc2ccc(C)cc2C)C1(C)C` (stereo unspecified), for which the T/C reads like this: under setting [12], 99 % of control; under setting [13], 104 % of control; under setting [14], 110 % of control; under setting [1], 103 % of control.

Take `COC(=Nc1ccccc1)SSC(C)C`: the T/C under setting [12] is 113 % of control; the T/C under setting [13] was 108 % of control; the T/C under setting [14] is 102 % of control; the T/C under setting [1] is 100 % of control; the T/C under setting [8] was 97 % of control.
